Data from patent US4446149A, “Medicine for treatment of cervical erosion” (priority 1981, dated 1984).
Entries after “also recorded” stand apart in the source; their conditions may differ. Read-outs that look alike come from different tables or passages of the source.

How the values were obtained:
[1] = Acute toxicity of L-carnosine (peritoneal and oral); format: in vivo; settings: mouse, in vivo; for LD50 at 72 h: dd strain male mice
Method: (§1) […] LD50 was computed by the Van der Waerden method based on the number of dead mice after 72 hours. In the examination, L-carnosine was diluted with a physiological saline so that its administration concentration would be 0.1-0.3 ml/10 g.

dd strain male mice = assay: as above; format: in vivo
Method: as §1

[2] = cited from earlier work
[3] = cited from earlier work; remark: listed apart in the source
carnosinase = settings: taken into the body; with the aid of carnosinase; cited from earlier work
[4] = peritoneal 15,000 mg/kg, after about 30 minutes

For `NCCC(=O)N[C@@H](Cc1cnc[nH]1)C(=O)O` [L-carnosine, β-alanyl-L-histidine], the mortality at 12 h ([1]; 15000 mg/kg, oral 15,000 mg/kg, after 12 hours, read-out: mice died) was 10%, the mortality at 2 h ([1]; ip, 15000 mg/kg, peritoneal 15,000 mg/kg, after 2 hours, read-out: experimental animals died) was 80% and the LD50 at 72 h ([1]; ip, peritoneal, Van der Waerden method, 72 hours (75-hour value elsewhere in the source), read-out: LD50 at 95% level of confidence) was 9090 mg/kg. For the same molecule, the LD50 at 72 h ([1]; oral, (the minimum lethal dose), read-out: LD50) was > 14900 mg/kg, the “toxicity (overall)” value (dd strain male mice; acute toxicity test, dd strain male mice) was “quite low toxicity” and the “appreciable effect (symptoms)” value (dd strain male mice; oral 15,000 mg/kg) was “did not show any appreciable effect”. The “symptoms when further advanced” value (dd strain male mice; peritoneal 15,000 mg/kg) was “the animals repeated horizontal rollings and upon contact stimulation the reflex became hyperreactive with an attendant spasm, leading to ultimate death”, the “symptoms: raising of the tails and clonospasm” value (dd strain male mice; peritoneal 15,000 mg/kg, about 30 minutes after administration) was “seen in as many as half of the experimental animals” and the experimental animals died (dd strain male mice; peritoneal 15,000 mg/kg, after 1 hour and 30 minutes) was “Half”. The experimental animals died (dd strain male mice; peritoneal 15,000 mg/kg, after 5 hours) was “all of the experimental animals died”, the “symptoms: frontal or escape reflexes” value (dd strain male mice; [4]) was “no frontal or escape reflexes” and the “symptoms: spontaneous movement and respiration” value (dd strain male mice; [4]) was “a reduction in spontaneous movement accompanied by an irregular or decreased number of respirations”. The LD100 (dd strain male mice; peritoneal, mice) was 15,000 mg/kg, the solubility in water [2] was “easily soluble in water; also recorded: readily soluble in water” and the “pH value of its aqueous solution” value [3] was 8.0-8.5. The metabolism (carnosinase) was “decomposed, with the aid of carnosinase, into L-histidine and β-alanine”.
